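Method: 48-hour compound exposure of cells in 96-well plates, five concentrations, linear interpolation of endpoints. Definition used: TGI = concentration required for complete inhibition of growth.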
How the values were obtained:
Experiment in all cases: NCI tumour cell line growth inhibition, 48 h
[1] = test system: A498 renal
[2] = test system: A549 NSCLC
[3] = test system: CAKI-1 renal
[4] = test system: CCRF-CEM leukemia
[5] = test system: COLO 205 colon
[6] = test system: DLD-1 colon
[7] = test system: DMS 114 small cell lung
[8] = test system: DMS 273 small cell lung
[9] = test system: EKVX NSCLC
[10] = test system: HCC-2998 colon
[11] = test system: HCT-116 colon
[12] = test system: HCT-15 colon
[13] = test system: HL-60(TB) leukemia
[14] = test system: HOP-18 NSCLC
[15] = test system: HOP-62 NSCLC
[16] = test system: HOP-92 NSCLC
[17] = test system: HT29 colon
[18] = test system: IGROV1 ovarian
[19] = test system: K-562 leukemia
[20] = test system: KM12 colon
[21] = test system: KM20L2 colon
[22] = test system: LOX IMVI melanoma
[23] = test system: M19-MEL melanoma
[24] = test system: MALME-3M melanoma
[25] = test system: MCF7 breast
[26] = test system: MOLT-4 leukemia
[27] = test system: NCI-H226 lung
[28] = test system: NCI-H23 lung
[29] = test system: NCI-H460 lung
[30] = test system: NCI-H522 lung
[31] = test system: NCI/ADR-RES ovarian
[32] = test system: OVCAR-3 ovarian
[33] = test system: OVCAR-4 ovarian
[34] = test system: OVCAR-5 ovarian
[35] = test system: OVCAR-8 ovarian
[36] = test system: P388 leukemia
[37] = test system: P388/ADR leukemia
[38] = test system: RPMI-8226 leukemia
[39] = test system: RXF 393 renal
[40] = test system: SF-268 CNS
[41] = test system: SF-295 CNS
[42] = test system: SF-539 CNS
[43] = test system: SK-MEL-2 melanoma
[44] = test system: SK-MEL-28 melanoma
[45] = test system: SK-MEL-5 melanoma
[46] = test system: SK-OV-3 ovarian
[47] = test system: SN12C renal
[48] = test system: SN12K1 renal
[49] = test system: SNB-19 CNS
[50] = test system: SNB-75 CNS
[51] = test system: SNB-78 CNS
[52] = test system: SW-620 colon
[53] = test system: U251 CNS
[54] = test system: UACC-257 melanoma
[55] = test system: UACC-62 melanoma
[56] = test system: UO-31 renal

Cc1c2cnccc2c(C)c2c1c1ccccc1n2CC1CO1 (stereo unspecified)
TGI [1]: 0.581 µM | TGI [2]: 4.85 µM | TGI [3]: 4.87 µM | TGI [4]: 1.28 µM | TGI [5]: 2.87 µM | TGI [6]: 4.58 µM | TGI [7]: 2.43 µM | TGI [8]: 2.43 µM | TGI [9]: 2.08 µM | TGI [10]: 4.4 µM | TGI [11]: 5.07 µM | TGI [12]: 4.56 µM | TGI [13]: 0.597 µM | TGI [14]: 6.56 µM | TGI [15]: 3.34 µM | TGI [16]: 4.31 µM | TGI [17]: 4.82 µM | TGI [18]: 5.99 µM | TGI [19]: 3.24 µM | TGI [20]: 10.9 µM | TGI [21]: 4.62 µM | TGI [22]: 2.74 µM | TGI [23]: 2.94 µM | TGI [24]: 3.44 µM | TGI [25]: 2.91 µM | TGI [26]: 0.328 µM | TGI [27]: 5.54 µM | TGI [28]: 8.4 µM | TGI [29]: 2.52 µM | TGI [30]: 3.29 µM | TGI [31]: 3.57 µM | TGI [32]: 3.76 µM | TGI [33]: 5.46 µM | TGI [34]: 5.54 µM | TGI [35]: 2.8 µM | TGI [36]: 1.26 µM | TGI [37]: 1.61 µM | TGI [38]: 7.6 µM | TGI [39]: 1.92 µM | TGI [40]: 2.09 µM | TGI [41]: 3.2 µM | TGI [42]: 2.52 µM | TGI [43]: 3.44 µM | TGI [44]: 4.03 µM | TGI [45]: 2.23 µM | TGI [46]: 6.93 µM | TGI [47]: 1.31 µM | TGI [48]: 2.2 µM | TGI [49]: 5.59 µM | TGI [50]: 0.861 µM | TGI [51]: 5.14 µM | TGI [52]: 2.8 µM | TGI [53]: 9.1 µM | TGI [54]: 3.51 µM | TGI [55]: 8.19 µM | TGI [56]: 3.02 µM

— PubChem BioAssay (NCI)
